Assay results taken from patent publication US12552788B2 (priority 2020, dated 2026).

Test system: IFN β-production
Settings: soluble, unformulated form
Protocol: (FIG. 3A) Bioluminescence images of luciferase reporter mice (IFβ+/Δβ-luc); images taken 4, 24 and 48 h post footpad injection of IMDQ-PEG-CHOL, IMDQ-PEG and native IMDQ.
In vivo immune activation imaging. Luciferase reporter mice (IFNβ+/Δβ-luc) with a BALB/c background, aged 7-9 weeks, were housed in individual ventilated cages and given ad libitum access to food and water. 20 mL of IMDQ-PEG-CHOL, IMDQ-PEG or IMDQ were injected subcutaneously in the footpad (n=3) at an equivalent INDQ dose of 2 mg. For in vivo imaging at the given time points, mice were injected subcutaneously with 200 μL D-luciferin and in vivo luminescence imaging was recorded 12 min later using the IVIS Lumina II imaging system. Local (DLN and DLN+foot pad) luminescence and full-body luminescence were quantified using the Living Image 4.4 software.

CCCCc1nc2c(N)nc3ccccc3c2n1Cc1ccc(CN)cc1 [IMDQ, 1-(4-(aminomethyl)benzyl)-2-butyl-1H-imidazo[4,5-c]quinolin-4-amine]
entry into systemic circulation upon local administration: rapidly enters systemic circulation
